From publication PMC11876601 (Molecular Systems Biology, 2025) come the findings set out here.

In general, EC50 refers to the concentration needed to bring the measured effect to its halfway point.

Holding throughout (test): cells
Common to all, as to design: ATPlite luminescence viability of PDAC cell lines, 11-dose single-agent curves, 4-parameter fit
(ATP-based viability assays read luminescence as a measure of living cells.)

The subject of assay [1] is AsPC-1. To be noted: Homo sapiens, ASPC1, 72 h, read-out: EC50 [nM]. The procedure, abridged: (§1)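 cells (1000 to 5000 per well) seeded 24 h before drug addition in a combination screen at 0.2% final DMSO. Controls were drug-free wells (negative) and 5 µM staurosporine (positive).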
Assay [2] relates to BxPC-3. The settings on record: Homo sapiens, BXPC-3, 72 h, read-out: EC50 [nM]. The procedure, abridged: as §1
Assay [3] deals with Capan-1. The settings on record: Homo sapiens, CAPAN-1, 72 h, read-out: EC50 [nM]. In a few lines: as §1
For assay [4], the system named is Colo-357. The settings on record: Homo sapiens, COLO357, 72 h, read-out: EC50 [nM]. In a few lines: as §1
In assay [5] the test system is Dan-G. To be noted: 72 h, read-out: EC50 [nM]. In a few lines: as §1
Assay [6] relates to FAMPAC. The settings on record: 72 h, read-out: EC50 [nM]. The procedure, abridged:
as §1

Assay [7] deals with HPDE. The settings on record: HPDE, 72 h, read-out: EC50 [nM]. The procedure, abridged: as §1
Assay [8] deals with HuP-T4. The settings on record: Homo sapiens, HuP-T4, 72 h, read-out: EC50 [nM]. In a few lines:
as §1

In assay [9] the test system is MiaPaCa-2. The settings on record: Homo sapiens, MIA PaCa-2, 72 h, read-out: EC50 [nM]. The procedure, abridged: as §1
For assay [10], the system named is PANC-1. The settings on record: Homo sapiens, PANC-1, 72 h, read-out: EC50 [nM]. The procedure, abridged: as §1
For assay [11], the system named is PSN-1. To be noted: Homo sapiens, PSN1, 72 h, read-out: EC50 [nM]. The procedure, abridged:
as §1

The test system of assay [12] is PaTu-8988-T. To be noted: Homo sapiens, PaTu 8988t, 72 h, read-out: EC50 [nM]. In a few lines: as §1
For assay [13], the system named is Suit2-07. The settings on record: 72 h, read-out: EC50 [nM]. In a few lines:
as §1

Consider `COc1cc(Nc2c(C#N)cnc3cc(OCCCN4CCN(C)CC4)c(OC)cc23)c(Cl)cc1Cl` [Bosutinib], for which the EC50 came out at 5990 nM in assay [1]; 2170 nM in [2]; 6130 nM in assay [3]; 5090 nM in assay [4]; 2910 nM in [5]; 3030 nM in [6]. Besides, the EC50 in assay [7] was 2140 nM; in assay [8], above 10000 nM; in assay [9], above 10000 nM; in assay [10] it was above 10000 nM; in [11] it was 4490 nM; in [12] it was above 10000 nM. The EC50 in assay [13] was determined as 2330 nM.
In the case of `C[C@@H]1CN(C(=O)c2ccc(NC(=O)c3cc(O[C@H](C)c4c(Cl)ccc(F)c4Cl)c(N)nn3)cc2)C[C@H](C)N1` [Ensartinib], the EC50 was 5190 nM in assay [1]; 7520 nM in assay [2]; 1990 nM in assay [3]; 2870 nM in assay [4]; 2960 nM in [5]; 3600 nM in [6]. Besides, the EC50 in assay [7] was 4130 nM; in assay [8], 2630 nM; in assay [9], 791 nM; in [10], above 10000 nM; in assay [11], 4440 nM; in assay [12], above 10000 nM. Moreover, the concentration for a half-maximal effect (EC50) in [13] worked out at 2000 nM.
On to `CN1CCN(c2ccc(C(=O)Nc3n[nH]c4ccc(Cc5cc(F)cc(F)c5)cc34)c(NC3CCOCC3)c2)CC1` [Entrectinib], for which the EC50 in assay [1] was 5960 nM; in assay [2], 3500 nM; in assay [3] it was 6260 nM; in assay [4] it was 4900 nM; in assay [5] it was above 10000 nM; in [6] it was 5900 nM. For the same compound, the EC50 in assay [7] was 3900 nM; in [8], above 10000 nM; in assay [9] it was 2720 nM; in [10], 5790 nM; in [11], above 10000 nM; in assay [12] it was above 10000 nM. Further, the EC50 in assay [13] is above 10000 nM.
With `Cc1ccc(C(=O)Nc2ccc(CN3CCN(C)CC3)c(C(F)(F)F)c2)cc1C#Cc1cnc2cccnn12` [Ponatinib], the EC50 is 1160 nM in [1]; 739 nM in assay [2]; above 10000 nM in [3]; 9250 nM in assay [4]; 1200 nM in assay [5]; 830 nM in assay [6]. The EC50 in [7] was 1930 nM; in [8], above 10000 nM; in assay [9], 335 nM; in [10], above 10000 nM; in assay [11], 620 nM; in assay [12], 357 nM. For the same compound, in [13], the EC50 was found to be 618 nM.
In the case of `CC(=O)c1cc2c(o1)C(=O)c1ccccc1C2=O` [Napabucasin], the EC50 in [1] was found to be 644 nM; in assay [2], 493 nM; in [3] it was 6090 nM; in [4], 6740 nM; in assay [5], 5300 nM; in assay [6] it was 322 nM. In addition, the EC50 in assay [7] is 390 nM; in assay [8], 1650 nM; in assay [9], 176 nM; in assay [10], 1840 nM; in assay [11] it was 588 nM; in assay [12] it was 220 nM. For the same compound, the EC50 in assay [13] was above 10000 nM.
`Cc1ccc(NC(=O)c2ccc(CN3CCN(C)CC3)cc2)cc1Nc1nc(-c2cccnc2)cs1` [Masitinib]: the EC50 is above 10000 nM in assay [1]; 3050 nM in assay [2]; 3950 nM in [3]; 6650 nM in [4]; 3880 nM in [5]; above 10000 nM in assay [6]. Further, the EC50 in assay [7] was 5500 nM; in [8] it was above 10000 nM; in [9] it was 3770 nM; in assay [10], 3250 nM; in assay [11] it was 4380 nM; in [12], 4770 nM. In addition, in [13], the EC50 was above 10000 nM.
Consider `C=CC(=O)Nc1cc(Nc2nccc(-c3cn(C)c4ccccc34)n2)c(OC)cc1N(C)CCN(C)C` [Osimertinib], for which the EC50 in [1] is above 10000 nM; in assay [2], above 10000 nM; in assay [3] it was 5860 nM; in assay [4], 347 nM; in assay [5], 2560 nM; in [6] it was above 10000 nM. Further, the EC50 in assay [7] is 542 nM; in [8] it was 5300 nM; in assay [9], above 10000 nM; in assay [10], above 10000 nM; in assay [11] it was 5530 nM; in [12], above 10000 nM. Further, the EC50 in assay [13] is above 10000 nM.
For the compound `Cc1cc(Nc2ncc(Cl)c(Nc3ccccc3S(=O)(=O)C(C)C)n2)c(OC(C)C)cc1C1CCNCC1` [Ceritinib], the EC50 in assay [1] was 784 nM; in assay [2], 2870 nM; in [3] it was 5480 nM; in [4] it was 2930 nM; in [5] it was 2470 nM; in assay [6], 2770 nM. For the same compound, the EC50 in [7] was 1550 nM; in [8], above 10000 nM; in assay [9], 563 nM; in assay [10] it was above 10000 nM; in assay [11], 3390 nM; in [12] it was 1450 nM. Moreover, the EC50 in [13] is 4690 nM.
For the compound `C1=N/C2=N/c3ccc(OCCN4CCCC4)c(c3)COC/C=C/COCc3cccc(c3)C(=C1)N2` [Pacritinib], the EC50 in assay [1] came out at 529 nM; in [2], 1190 nM; in assay [3], 2210 nM; in assay [4], 1610 nM; in assay [5] it was 2100 nM; in [6], 1280 nM. Moreover, the EC50 in assay [7] is 1340 nM; in assay [8], 2500 nM; in [9], 475 nM; in assay [10], 1780 nM; in [11], 971 nM; in assay [12] it was 477 nM. Further, the EC50 in assay [13] amounted to 654 nM.
Consider `C=CC(=O)Nc1cccc(Nc2nc(Nc3ccc(N4CCN(C(C)=O)CC4)cc3OC)ncc2C(F)(F)F)c1` [Rociletinib], for which the EC50 in assay [1] worked out at 8730 nM; in assay [2] it was 4820 nM; in [3], 6270 nM; in assay [4], 7270 nM; in assay [5], 6290 nM; in assay [6] it was 3580 nM. Also, the EC50 in assay [7] was 3460 nM; in [8], above 10000 nM; in [9] it was 2370 nM; in assay [10] it was 7120 nM; in [11], 2080 nM; in [12], 4940 nM. Besides, the EC50 in assay [13] worked out at 2750 nM.
`Cc1cnc(Nc2ccc(OCCN3CCCC3)cc2)nc1Nc1cccc(S(=O)(=O)NC(C)(C)C)c1` [Fedratinib]: the EC50 in assay [1] was 622 nM; in assay [2] it was 659 nM; in [3], 2030 nM; in assay [4], 1070 nM; in [5], 1630 nM; in [6], 1010 nM. Also, the EC50 in assay [7] was found to be 1280 nM; in assay [8] it was 8310 nM; in assay [9], 400 nM; in assay [10] it was 2200 nM; in assay [11], 827 nM; in [12] it was 274 nM. The EC50 in assay [13] was 320 nM.
Take `Cc1ccc(C(=O)OCc2ccc([C@@H](CN)C(=O)Nc3ccc4cnccc4c3)cc2)c(C)c1` [Netarsudil]: the EC50 was 6090 nM in [1]; 4970 nM in assay [2]; above 10000 nM in assay [3]; 5250 nM in assay [4]; 1590 nM in [5]; 5930 nM in [6]. Also, the EC50 in [7] is above 10000 nM; in assay [8], 5200 nM; in [9] it was 3630 nM; in assay [10], 10000 nM; in [11], above 10000 nM; in assay [12], 4320 nM. Also, the EC50 in [13] was above 10000 nM.
